From patent publication US20100322928A1, “METHODS OF DIAGNOSING, MONITORING TREATMENT AND TREATING SYSTEMIC LUPUS ERYTHEMATOSUS (SLE)” (Yeda Research and Development Co., Ltd., priority 2007, published 2010)
Entries after “also recorded” stand apart in the source; their conditions may differ. Marks after values point to notes of the source that are not given here.

Tests used:
SLE-afflicted mice = conditions: cited from earlier work
OX40L = experiment: Immunostaining of kidney sections for OX40L expression; assay type: in vivo; conditions: 6 edratide-treated mice; intense staining in all 5 vehicle-treated mice
Procedure: Immunohistochemistry of kidney sections. Frozen cryostat sections (6 μm) were air-dried and fixed in acetone. For detection of OX40 ligand (OX40L) expression, sections were incubated for 16 hours at room temperature with anti-OX40L monoclonal antibody (M−20; Santa Cruz Biotechnology, Santa Cruz, Calif.). FITC-conjugated mouse anti-goat IgG (Jackson ImmunoResearch Laboratories, West Grove, Pa.) was then added.
Immunostaining of kidneys of (NZB×NZW)F1 mice for OX40L expression. […] Immunohistological analysis of kidney sections from 5 SLE-afflicted vehicle-treated or 6 edratide-treated mice and 3 disease-free young mice was performed.

[1] = tested on: (NZB×NZW)F1 mice with established SLE; experiment: ELISA for dsDNA-specific antibodies in sera of treated SLE-afflicted mice; assay type: in vivo; conditions: bled after termination of treatment, s.c. once a week for 10 weeks
Procedure: (§1) Treatment of (NZB×NZW)F1 mice with edratide. Female mice aged 6-7 months, with established SLE, were divided into groups (8-10 mice per group) and injected subcutaneously (s.c.) with edratide (25-50 μg) or vehicle only (Captisol®) once a week for 10 weeks. Proteinuria and anti-double stranded DNA (dsDNA) autoantibodies were monitored throughout this period.
Enzyme-linked immunosorbent assay (ELISA) for the detection of dsDNA-specific antibodies. Anti-dsDNA-specific antibodies were determined using lambda phage dsDNA as previously described (5).
(§2) Treatment with edratide ameliorates disease manifestations in (NZB×NZW)F1 mice with established SLE. SLE-afflicted female mice, aged 6-7 months, were treated with 10 weekly s.c. injections of edratide or vehicle (Captisol®) and followed for disease manifestations. One week after the treatment ended the mice were killed and their kidneys were evaluated for immune-complex deposits. The results of a representative experiment are presented in Table 1 below, which summarizes some clinical manifestations of the experimental mice.

[2] = tested on: (NZB×NZW)F1 mice with established SLE; experiment: Proteinuria, semi-quantitative Albustix test; assay type: in vivo; conditions: at the end of the experiment; s.c. once a week for 10 weeks
Procedure: as §1
Proteinuria. Proteinuria was measured by a standard semi-quantitative test, using an Albustix kit (Bayer Diagnostics, Newbury, UK).
as §2

[3] = tested on: (NZB×NZW)F1 mice with established SLE; experiment: Immunohistology of kidney sections for immune-complex deposits; assay type: in vivo; conditions: graded 0 none, 1 low, 2 moderate, 3 high intensity, s.c. once a week for 10 weeks
Procedure: as §1
Immunohistology. For detection of immune-complex deposits, frozen kidney sections (6 μm) were air-dried and fixed in acetone. Sections were incubated with FITC-conjugated goat anti-mouse IgG (gamma-chain specific; Jackson ImmunoResearch Laboratories, Avondale, Pa.) for 30 minutes and were extensively washed with PBS. The intensity of immune-complex deposits was graded on a […]: 0, no deposits; 1, low-intensity deposits; 2, moderate-intensity deposits; 3, high-intensity deposits.
as §2

[4] = tested on: spleen cells of SLE-afflicted (NZB×NZW)F1 mice; experiment: Real-time RT-PCR of spleen cell mRNA from treated mice; assay type: in vivo; conditions: normalized to β-actin
Procedure: Real-time RT-PCR. Messenger RNA (mRNA) was analyzed by quantitative real-time RT-PCR using LightCycler (Roche Diagnostics, Mannheim, Germany). Total RNA was isolated from spleen cells pooled from each treatment group (n=2−4) of (NZB×NZW)F1 mice. To prepare cDNA, RNA was reverse-transcribed using Moloney murine leukemia virus (M-MLV) reverse transcriptase (Promega, Madison, Wis.). The resulting cDNA was subjected to real-time RT-PCR according to the manufacturer's instructions. Briefly, the reaction volume (20 μl) contained 3 mM MgCl2, LightCycler hot start DNA SYBR Green I mix (Roche), specific primer pairs, and 5 μl of cDNA. Conditions for PCR were as follows: 10 minutes at 95° C. followed by 35-50 cycles of 15 seconds at 95° C., 15 seconds at 60° C., and 15 seconds at 72° C. Primer sequences (forward and reverse, respectively) were used as follows:
β-actin levels were used for normalization in calculating the expression levels of all other genes.
Real-time RT-PCR analysis. […] These genes were chosen because they reportedly meet at least one of the following three criteria: involvement in SLE, functioning in lymphocytes, and expression in the kidney.

[5] = tested on: splenocytes of SLE-afflicted (NZB×NZW)F1 mice; experiment: Affymetrix microarray of RNA from splenocytes of treated mice; assay type: in vivo
From the text: Preparation of RNA. Using the RNA/DNA/protein isolation reagent (TRI Reagent®; Molecular Research Center, Cincinnati, Ohio), total RNA was isolated from spleen cells that were pooled (n=2-4 mice) from each experimental group of (NZB×NZW)F1 mice.
Microarray and statistics. RNA samples were hybridized to the mouse genome AffymetrixGeneChip® 430A2 (Affymetrix, Santa Clara, Calif.) array. R packages were used from the Bioconductor project (23). Initially, probe signal summarization, normalization, and background subtraction were performed using Robust Multi-array Averaging (RMA) (24) in affy package with default parameters. Then, the statistical test for differentially expressed genes was performed using Linear Models for Microarray (LIMMA) package (25), which allows for a better variance estimation by calculating the moderated t-statistic using empirical Bayesian techniques. Finally, genes were selected that were statistically significant with P value <0.05 in each biological comparison of interest separately.
Microarray analysis of immunocytes from SLE-afflicted mice. In an attempt to identify gene expression profiles characteristic of SLE and to gain an insight into the modified profile induced by edratide, DNA microarray technology was used on RNA preparations from splenocytes of SLE-afflicted (NZB×NZW)F1 mice treated with edratide or with vehicle only (as described above and in Table 1). […] Three independent in vivo experiments were successfully performed. The RNA obtained in each experiment was hybridized independently on the Affymetrix chips.

[6] = SLE-afflicted mice, reference 5

In the case of “GYYWSWIRQPPGKGEEWIG (hCDR (Edratide) synthetic peptide) [synthetic peptide based on the CDR1 of the human monoclonal anti-DNA antibody bearing the common idiotype 16/6Id]”, the Kidney disease (SLE-afflicted mice; (NZB×NZW)F1 mice, WO 02/067848) is given as “reduced kidney disease”, the “Immunosuppressive cytokine TGFβ” value (SLE-afflicted mice; [6]) is given as “up-regulated” and the “Secretion and expression of pathogenic cytokines (IFNγ, IL-1β, TNFα, IL-10)” value (SLE-afflicted mice; [6]) is given as “reduced secretion and expression”. The “OX40L expression in kidney sections (immunostaining)” value (OX40L) was “very weak (in 2 mice and 1 mouse, respectively) or undetectable (in 4 and 2 mice, respectively); also recorded: down-regulated”, the “Anti dsDNA antibodies (OD), Dilution 1:10” value ([1]; serum dilution 1:10, mean ± spread) was 1.46 ± 0.32 OD and the “Anti dsDNA antibodies (OD), Dilution 1:250” value ([1]; serum dilution 1:250) was 0.48 ± 0.21 OD. For the same sequence, the Proteinuria [2] was 1.92 ± 0.96 g/L, the “Intensity of ICD (immune-complex deposits)” value [3] was 1.33 ± 0.36 and the “Real-time RT-PCR expression of Tfpi and S100a8 transcripts” value ([4]; genes down-regulated by the disease, FIG. 2B) was “up-regulated after edratide treatment to levels similar to those in the young controls”. For the same sequence, the “Real-time RT-PCR expression of Tnfsf4, Il-5rα, Zbtb20 and Nid1 transcripts” value ([4]; genes up-regulated by the disease, FIG. 2A) was “reduced the expression of these genes to levels similar to those seen in the young mice”, the “Fold difference in expression, edratide-treated (hCDR1) vs SLE mice: 1190003K14Rik” value ([5]; gene 1190003K14Rik, splenocytes) was 2.4 fold and the “Fold difference in expression, edratide-treated vs SLE mice: 2700022B06Rik” value ([5]; gene 2700022B06Rik, not statistically significant) was −1.4^† fold. The “Fold difference in expression, edratide-treated vs SLE mice: 5830484A20Rik” value ([5]; gene 5830484A20Rik, splenocytes, negative = reduction in signal) was −3.0 fold, the “Fold difference in expression, edratide-treated vs SLE mice: A130040M12Rik” value ([5]; gene A130040M12Rik, not statistically significant) was 1.3^† fold and the “Fold difference in expression, edratide-treated vs SLE mice: Ass1” value ([5]; gene Ass1, not statistically significant) was −1.2^† fold. The “Fold difference in expression, edratide-treated (hCDR1) vs SLE mice: Camp” value ([5]; gene Camp, splenocytes) was 2.8 fold, the “Fold difference in expression, edratide-treated vs SLE mice: Cd8b1” value ([5]; gene Cd8b1, not statistically significant) was 2.0^† fold and the “Fold difference in expression, edratide-treated (hCDR1) vs SLE mice: Ctsg” value ([5]; gene Ctsg, not statistically significant) was 1.2^† fold. For the same sequence, the “Fold difference in expression, edratide-treated vs SLE mice: Cyp11a1” value ([5]; gene Cyp11a1, not statistically significant) was −1.8^† fold, the “Fold difference in expression, edratide-treated vs SLE mice: Dhx9” value ([5]; gene Dhx9, not statistically significant) was −1.0^† fold and the “Fold difference in expression, edratide-treated vs SLE mice: Fzd6” value ([5]; gene Fzd6, splenocytes, negative = reduction in signal) was −2.9 fold. The “Fold difference in expression, edratide-treated vs SLE mice: Gpr132” value ([5]; gene Gpr132, not statistically significant) was −1.1^† fold, the “Fold difference in expression, edratide-treated vs SLE mice: Hdgfrp3” value ([5]; gene Hdgfrp3, not statistically significant) was −1.7^† fold and the “Fold difference in expression, edratide-treated vs SLE mice: IL5Rα” value ([5]; gene IL5Rα, splenocytes, negative = reduction in signal) was −2.0 fold. For the same sequence, the “Fold difference in expression, edratide-treated vs SLE mice: LOC 545340” value ([5]; gene LOC 545340, splenocytes, negative = reduction in signal) was −2.7 fold, the “Fold difference in expression, edratide-treated (hCDR1) vs SLE mice: Lcn” value ([5]; gene Lcn (Lipocalin 2), splenocytes) was 2.9 fold and the “Fold difference in expression, edratide-treated vs SLE mice: Lmo7” value ([5]; gene Lmo7, splenocytes, negative = reduction in signal) was −2.8 fold. For the same sequence, the “Fold difference in expression, edratide-treated (hCDR1) vs SLE mice: Ltf” value ([5]; gene Ltf, splenocytes) was 3.2 fold, the “Fold difference in expression, edratide-treated (hCDR1) vs SLE mice: Mpo” value ([5]; gene Mpo, not statistically significant) was 1.5^† fold and the “Fold difference in expression, edratide-treated (hCDR1) vs SLE mice: Ngp” value ([5]; gene Ngp, splenocytes) was 2.5 fold. For the same sequence, the “Fold difference in expression, edratide-treated vs SLE mice: Nid1” value ([5]; gene Nid1, splenocytes, negative = reduction in signal) was −2.4 fold, the “Fold difference in expression, edratide-treated vs SLE mice: Pigr” value ([5]; gene Pigr, not statistically significant) was −1.4^† fold and the “Fold difference in expression, edratide-treated (hCDR1) vs SLE mice: Prtn3” value ([5]; gene Prtn3, not statistically significant) was 1.3^† fold. For the same sequence, the “Fold difference in expression, edratide-treated vs SLE mice: Pstpip2 (second entry)” value ([5]; gene Pstpip2, entry with SLE fold 2.0, not statistically significant) was −1.5^† fold, the “Fold difference in expression, edratide-treated vs SLE mice: Pstpip2 (first entry)” value ([5]; gene Pstpip2, entry with SLE fold 2.2, not statistically significant) was −1.9^† fold and the “Fold difference in expression, edratide-treated vs SLE mice: Rnf184” value ([5]; gene Rnf184, not statistically significant) was 1.2^† fold. The “Fold difference in expression, edratide-treated (hCDR1) vs SLE mice: S100a8” value ([5]; gene S100a8, splenocytes) was 2.4 fold, the “Fold difference in expression, edratide-treated (hCDR1) vs SLE mice: S100a9” value ([5]; gene S100a9, splenocytes) was 2.4 fold and the “Fold difference in expression, edratide-treated (hCDR1) vs SLE mice: Slfn” value ([5]; gene Slfn (Schlafen 4), splenocytes) was 2.7 fold. The “Fold difference in expression, edratide-treated (hCDR1) vs SLE mice: Tfpi” value ([5]; gene Tfpi, splenocytes) was 2.2 fold, the “Fold difference in expression, edratide-treated (hCDR1) vs SLE mice: Thbs1” value ([5]; gene Thbs1, not statistically significant) was 1.5^† fold and the “Fold difference in expression, edratide-treated vs SLE mice: Tnfsf4” value ([5]; gene Tnfsf4, splenocytes, negative = reduction in signal) was −2.5 fold. For the same sequence, the “Fold difference in expression, edratide-treated vs SLE mice: Zbtb20” value ([5]; gene Zbtb20, splenocytes, negative = reduction in signal) was −2.2 fold, the “Fold difference in expression, edratide-treated vs SLE mice: Unknown gene” value ([5]; gene title and symbol Unknown, SLE fold 1.9) was −1.7 fold and the “Number of genes down-regulated 2-fold or more in diseased mice that were up-regulated after treatment” value ([5]; of the 12 identified genes) was 9 (75%) genes. The “Number of genes up-regulated 2-fold or more in SLE-afflicted mice that were significantly down-regulated after treatment” value ([5]; of the 15 genes with an identified product) was 9 (60%) genes and the “Number of disease-altered genes affected by edratide and restored to levels similar to disease-free controls” value ([5]; of the 348 genes with altered expression in vehicle-treated diseased mice (22%)) was 76 genes.
